In ChEMBL document CHEMBL1201862, “PubChem BioAssay data set” (2004):
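All cell lines were grown in 96-well plates and treated with compound for 48 hours. GI50 is the concentration that inhibits growth by half.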 The source made the active and inactive calls. Rule as the data show it: active = GI50 up to about 1.1 µM and inactive = higher.

Assays:
Experiment in all cases: inhibition of tumour cell growth, NCI panel, 48 h
[1] = system: RXF 631
[2] = system: DLD-1
[3] = system: KM-20L2
[4] = system: SNB-78
[5] = system: LXFL 529
[6] = system: HOP-18
[7] = system: XF498
[8] = system: M19-MEL

Compound	GI50 [1]	GI50 [2]	GI50 [3]	GI50 [4]	GI50 [5]	GI50 [6]	GI50 [7]	GI50 [8]
C=CC1(C)CC(=O)C2(O)C(C)(O1)C(OC(C)=O)C(O)C1C(C)(C)CCC(O)C12C (centres undefined)	> 100 µM (inactive)	> 150 µM (inactive)	110 µM (inactive)	5.4 µM (inactive)	> 100 µM (inactive)	41.3 µM (inactive)	61.8 µM (inactive)	104 µM (inactive)
CCCCCCCCCCCCCC(=O)NO	10.9 µM (inactive)	13.2 µM (inactive)	7.64 µM (inactive)	19.8 µM (inactive)	5.14 µM (inactive)	34.4 µM (inactive)	24.4 µM (inactive)	24 µM (inactive)
C=C(C)[C@H]1CC[C@@]2(C)C(C1)[C@H](C)CC[C@@H]2O (some centres undefined)	> 100 µM (inactive)	> 100 µM (inactive)	> 100 µM (inactive)	> 100 µM (inactive)	> 100 µM (inactive)	> 100 µM (inactive)	> 100 µM (inactive)	> 100 µM (inactive)
NC1=C(NC(=O)Cc2ccc(F)cc2)C(=O)c2ccccc2C1=O	> 60.4 µM (inactive)	> 33.3 µM (inactive)	> 100 µM (inactive)	26.1 µM (inactive)	> 100 µM (inactive)		> 78.7 µM (inactive)	9.73 µM (inactive)
C=CCNC1=NC(=O)C(CC(=O)Nc2ccc([N+](=O)[O-])cc2[N+](=O)[O-])S1 (centres undefined)	> 100 µM (inactive)	> 100 µM (inactive)	> 100 µM (inactive)	> 100 µM (inactive)	> 100 µM (inactive)	> 100 µM (inactive)	> 100 µM (inactive)	> 100 µM (inactive)
O=C(OCC1CO1)c1cccs1 (centres undefined)	> 100 µM (inactive)	> 100 µM (inactive)	> 100 µM (inactive)	> 100 µM (inactive)	> 100 µM (inactive)		> 100 µM (inactive)	> 100 µM (inactive)
CSc1ccc(C2OC(=O)c3ccccc32)c2ccccc12 (centres undefined)	> 100 µM (inactive)	86.5 µM (inactive)	67 µM (inactive)	46.5 µM (inactive)	58.3 µM (inactive)	40.6 µM (inactive)	61.8 µM (inactive)	> 100 µM (inactive)
CNC(=S)NNC(=O)c1c(C)nc2sccn12	> 100 µM (inactive)	> 100 µM (inactive)	> 100 µM (inactive)		> 100 µM (inactive)	0.414 µM (active)	> 100 µM (inactive)	> 100 µM (inactive)
Cc1ccccc1-c1c(N)nc(N)nc1C(=O)Nc1nccs1	> 100 µM (inactive)	> 100 µM (inactive)	> 100 µM (inactive)	> 100 µM (inactive)	> 100 µM (inactive)	> 100 µM (inactive)	> 100 µM (inactive)	> 100 µM (inactive)
COC(=O)C(C(=O)C(=O)Nc1cccc(C)c1)C1=NC(N)SS1 (centres undefined)	> 100 µM (inactive)	> 100 µM (inactive)	> 100 µM (inactive)	> 100 µM (inactive)	> 100 µM (inactive)	> 100 µM (inactive)	> 100 µM (inactive)	> 100 µM (inactive)
CC12CCC(CC1)C(C)(C)O2 [EUCALYPTOL]	> 100 µM (inactive)	25.9 µM (inactive)	38.8 µM (inactive)	67.6 µM (inactive)	> 100 µM (inactive)		2.16 µM (inactive)	11.5 µM (inactive)
